IC50 and solubility data for 14 molecules are collected here from ChEMBL document CHEMBL4619786, “Discovery of Novel Resorcinol Dibenzyl Ethers Targeting the Programmed Cell Death-1/Programmed Cell Death-Ligand 1 Interaction as Potential Anticancer Agents” (J Med Chem, 2020).

≈ marks a conversion by molar mass, not a printed value.

Series [1] deals with T1, Programmed cell death protein 1/Programmed cell death 1 ligand 1 (Homo sapiens, UniProt Q9NZQ7). The experiment in a line: Inhibition of human Fc-tagged PD1 N-terminal domain (Leu25 to Gln167 residues) expressed in HEK293 cells/human His-tagged PDL1 (Phe19 to Arg238 residues) expressed in HEK293 cells protein-protein interaction after 40 mins by APC-labeled anti-His antibody/Eu-labeled anti-human IgG based HTRF assay. It is filed as cell-based. Background: Time-resolved FRET reads energy transfer from a long-lived donor to a nearby acceptor.

In series [2] the target is T1, Programmed cell death protein 1/Programmed cell death 1 ligand 1. The experiment in a line: Inhibition of human PD1/PDL1 protein-protein interaction by HTRF assay. Format: protein-complex assay.
The subject of series [3] is A549. Put plainly: Cytotoxicity against human A549 cells assessed as reduction in cell viability measured after 48 hrs by MTT assay. It is filed as functional, cell-based. Particulars: A549, 48 h. (Formazan colour is commonly taken as a measure of viable cells.)
For series [4], the system named is MCF7. The experiment in a line: Cytotoxicity against human MCF7 cells assessed as reduction in cell viability measured after 48 hrs by MTT assay. It is filed as functional, cell-based. Conditions: MCF7, 48 h.
The test system of series [5] is B16-F10. The experiment in a line: Cytotoxicity against mouse B16/F10 cells assessed as reduction in cell viability measured after 48 hrs by MTT assay. It is filed as functional, cell-based. Particulars: B16-F10, 48 h.
A short description of series [6]: Solubility of the compound in water. It is filed as physicochemical.
Series [7] concerns the target T1, Programmed cell death protein 1/Programmed cell death 1 ligand 1. The experiment in a line: Inhibition of human C-terminal Ig-Fc-tagged PD1 (Leu25 to Gln167 residues) expressed in HEK293 cells/human C-terminal epitope-His-tagged PDL1 (Phe19 to Arg238 residues) expressed in HEK293 cells protein-protein interaction preincubated for 15 mins with PDL1 followed by PD1 addition and measured after 15 mins by APC-labeled anti-His antibody/Eu-labeled anti-human IgG based HTRF assay. Format: cell-based.

T1 sequence (Q15116 whole entry, the tested form may be a part): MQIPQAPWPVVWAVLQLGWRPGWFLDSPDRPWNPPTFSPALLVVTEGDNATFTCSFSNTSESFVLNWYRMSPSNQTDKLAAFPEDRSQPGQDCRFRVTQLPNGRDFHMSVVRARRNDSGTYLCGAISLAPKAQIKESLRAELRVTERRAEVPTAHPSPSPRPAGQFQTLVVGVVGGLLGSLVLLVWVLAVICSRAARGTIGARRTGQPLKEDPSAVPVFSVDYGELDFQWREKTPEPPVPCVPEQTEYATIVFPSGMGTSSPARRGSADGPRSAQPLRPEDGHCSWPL
T1 sequence (Q9NZQ7 whole entry, the tested form may be a part): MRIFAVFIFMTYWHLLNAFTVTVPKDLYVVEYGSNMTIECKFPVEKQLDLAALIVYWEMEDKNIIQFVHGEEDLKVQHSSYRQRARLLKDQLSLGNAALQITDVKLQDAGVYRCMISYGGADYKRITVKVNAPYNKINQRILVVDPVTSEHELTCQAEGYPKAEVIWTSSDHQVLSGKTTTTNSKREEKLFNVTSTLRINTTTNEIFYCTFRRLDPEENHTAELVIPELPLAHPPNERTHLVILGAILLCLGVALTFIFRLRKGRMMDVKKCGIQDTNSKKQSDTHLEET

Regarding `Cc1c(Nc2cccc3cc(CNCCO)cnc23)cccc1-c1ccccc1`, in series [1], the concentration for half-maximal inhibition (IC50) was less than 0.01 µM.

In series [1], `COc1cc(NC(=O)c2cccc(-c3ccccc3)c2C)ccc1CN1CCN(C(C)=O)CC1` registered an IC50 of more than 10 µM.

`Cc1c(COc2ccc3cc(CNCCO)ccc3c2)cccc1-c1ccccc1`: the concentration for half-maximal inhibition (IC50) was more than 10 µM in series [1] and more than 10000 nM in series [2].

With `Cc1c(COc2cc(OCc3cccc(C#N)c3)c(CN3C[C@@H](O)C[C@@H]3CO)cc2Cl)cccc1-c1ccc2c(c1)OCCO2`, the IC50 in series [3] was 4.6 µM; in series [4] it was 6.6 µM; in series [5] it was 2400 nM; in series [2] it was 11.1 nM.

As to `Cc1c(COc2cc(OCc3cccc(C#N)c3)c(CN3CCC(O)C3)cc2Cl)cccc1-c1ccc2c(c1)OCCO2` (centres undefined), the IC50 turned out to be 4.2 µM in series [3], 4.4 µM in series [4], 2300 nM in series [5] and 12.9 nM in series [2].

As for `O=C(NC(Cc1cc(=O)[nH]c2ccccc12)C(=O)O)c1ccc(Cl)cc1` (centres undefined) [REBAMIPIDE], in series [6], the solubility worked out at 7.6 µg/mL (≈ 20.5 µM).

On to `Cc1c(COc2cc(OCc3cccc(C#N)c3)c(CNC(C)(C)C(=O)O)cc2Cl)cccc1-c1ccncc1`, for which the half-maximal inhibitory concentration (IC50) in series [7] and in series [2] was more than 100 nM each time.

Regarding `Cc1c(COc2cc(OCc3cccc(C#N)c3)c(CN[C@H](CO)C(=O)O)cc2Cl)cccc1-c1ccccc1`, the IC50 in series [3] was more than 10 µM; in series [4], more than 10 µM; in series [5], more than 10000 nM; in series [2], 8 nM.

With `Cc1c(COc2cc(OCc3cccc(C#N)c3)c(CN3CC[C@H](C(=O)O)C3)cc2Cl)cccc1-c1ccc2c(c1)OCCO2`, the IC50 in series [3] is more than 10 µM; in series [4], more than 10 µM; in series [7] it was 7.9 nM; in series [5], 10800 nM; in series [2] it was 7.9 nM.

Molecule `Cc1c(COc2cc(OCc3ccnc(C#N)c3)c(CNC(C)(C)C(=O)O)cc2Cl)cccc1-c1ccc2ocnc2c1` gave an IC50 in series [7] of 10 nM.

As to `CC(=O)N1CCN(Cc2ccc3oc(-c4cccc(-c5ccccc5)c4)cc(=O)c3c2)CC1`, in series [2], the IC50 was more than 10000 nM.

`Cc1c(COc2cc(OCc3cccc(C#N)c3)c(CN3CC(C(=O)O)C3)cc2Cl)cccc1-c1ccc2c(c1)OCCO2` returned an IC50 in series [2] of 14.5 nM.

`Cc1c(COc2cc(OCc3cccc(C#N)c3)c(CN3CC(C(=O)O)C3)cc2Cl)cccc1-c1ccccc1` yielded an IC50 in series [2] of 31.2 nM.

For `Cc1c(COc2ccc3cc(CN4C[C@@H](O)C[C@H]4C(=O)O)ccc3c2)cccc1-c1ccc2c(c1)OCCO2`, the IC50 in series [2] was more than 10000 nM.

What is called IC50 is the concentration that inhibits the measured activity by half. One may read the solubility as the concentration that dissolves in the medium under given conditions. Low readings indicate little dissolved substance, high ones much dissolved substance.
